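Grown in 96-well plates, cells were treated for 48 hours with each compound at five concentrations. Insufficient inhibition: endpoint recorded as highest concentration tested. GI50: concentration for 50% inhibition of growth.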 The source made the active and inactive calls. Cut-off read from the data, not from the text of the source: active = GI50 up to about 1.1 µM and inactive = higher.
Tests used:
Assay in all cases: NCI anticancer screen, dose series, 48 h
HL-60 = system: HL-60
TK-10 = system: TK-10
SW-620 = system: SW-620
NCI-H522 = system: NCI-H522
NCI-H460 = system: NCI-H460
OVCAR-4 = system: OVCAR-4
CAKI-1 = system: CAKI-1
SK-OV-3 = system: SK-OV-3
SR = system: SR
NCI-H23 = system: NCI-H23
786-0 = system: 786-0
HCC 2998 = system: HCC 2998
KM12 = system: KM12
M14 = system: M14
CCRF-CEM = system: CCRF-CEM
HT-29 = system: HT-29
SK-MEL-28 = system: SK-MEL-28
OVCAR-5 = system: OVCAR-5
UO-31 = system: UO-31

Measured: GI50

O=C(/C=C/c1cccc([N+](=O)[O-])c1)c1cccnc1
inactive: HL-60 20.6 µM | TK-10 > 100 µM | SW-620 19.4 µM | NCI-H522 7.98 µM | NCI-H460 50.7 µM | OVCAR-4 > 91 µM | CAKI-1 > 46.5 µM | SK-OV-3 > 100 µM | SR 22.7 µM | NCI-H23 17.7 µM | 786-0 16.5 µM | HCC 2998 36.5 µM | KM12 19.9 µM | M14 13.7 µM | CCRF-CEM 24.6 µM | HT-29 20.2 µM | SK-MEL-28 23.6 µM | OVCAR-5 > 100 µM | UO-31 > 45.1 µM

Cc1ccccc1N(CCC#N)C1=NN(C(=O)CC(=O)Nc2ccc(Cl)cc2)C(c2ccccc2)C1 (stereo not given)
inactive: HL-60 > 100 µM | SW-620 > 100 µM | NCI-H522 > 100 µM | NCI-H460 > 100 µM | OVCAR-4 > 100 µM | SK-OV-3 > 100 µM | SR > 100 µM | NCI-H23 > 100 µM | 786-0 > 100 µM | HCC 2998 > 100 µM | KM12 > 100 µM | M14 > 100 µM | CCRF-CEM > 100 µM | HT-29 > 100 µM | SK-MEL-28 > 100 µM | OVCAR-5 > 100 µM | UO-31 > 100 µM

Cn1cnc([N+](=O)[O-])c1Sc1nc2cccnc2s1
inactive: TK-10 15.7 µM | SW-620 12 µM | NCI-H460 34.1 µM | OVCAR-4 12.1 µM | CAKI-1 7.93 µM | SK-OV-3 51.3 µM | SR 16 µM | NCI-H23 > 10 µM | 786-0 14.5 µM | HCC 2998 16.7 µM | KM12 31.6 µM | M14 13.7 µM | HT-29 21.3 µM | SK-MEL-28 16.5 µM | OVCAR-5 47.2 µM | UO-31 17.1 µM

C[C@]12CC[C@H](O)CC1=CC[C@@H]1C2CC[C@]2(C)c3nn(-c4ccc(F)cc4)nc3CC12 (stereo not given in full)
inactive: HL-60 17.5 µM | TK-10 > 100 µM | SW-620 > 100 µM | NCI-H522 58.3 µM | NCI-H460 23.4 µM | OVCAR-4 16.6 µM | CAKI-1 > 100 µM | SK-OV-3 39.4 µM | SR > 100 µM | NCI-H23 63.4 µM | 786-0 45.3 µM | HCC 2998 24 µM | KM12 24.3 µM | M14 32.6 µM | CCRF-CEM 58.1 µM | HT-29 22.4 µM | SK-MEL-28 > 100 µM | OVCAR-5 67.1 µM | UO-31 81.1 µM

Cc1c(C(=O)Nc2ccc(Cl)cc2)nc(N)nc1-c1cccc(Cl)c1
inactive: HL-60 39.2 µM | SW-620 62.7 µM | NCI-H460 66.2 µM | OVCAR-4 > 100 µM | CAKI-1 68.7 µM | SK-OV-3 > 100 µM | SR > 100 µM | NCI-H23 > 100 µM | 786-0 > 100 µM | HCC 2998 61.9 µM | KM12 46.6 µM | M14 55.7 µM | CCRF-CEM > 100 µM | HT-29 36.7 µM | SK-MEL-28 > 100 µM | OVCAR-5 > 100 µM | UO-31 > 100 µM

Cc1cc(O)nc(NNC(C#N)c2ccc([N+](=O)[O-])cc2)n1 (stereo not given)
inactive: HL-60 63.4 µM | TK-10 > 100 µM | SW-620 95.3 µM | NCI-H522 > 100 µM | NCI-H460 > 100 µM | OVCAR-4 > 100 µM | CAKI-1 33.4 µM | SK-OV-3 > 100 µM | SR 26.3 µM | NCI-H23 > 100 µM | 786-0 > 100 µM | KM12 84.9 µM | M14 > 100 µM | CCRF-CEM > 100 µM | HT-29 > 100 µM | SK-MEL-28 > 100 µM | OVCAR-5 > 100 µM | UO-31 47.5 µM

COC[C@@H](/N=C/N1CCc2cc(OC)c(OC)cc2[C@@H]1C)C(C)(C)C
inactive: HL-60 > 100 µM | TK-10 > 100 µM | SW-620 > 100 µM | NCI-H522 > 100 µM | NCI-H460 > 100 µM | OVCAR-4 > 100 µM | CAKI-1 > 100 µM | SK-OV-3 > 100 µM | SR > 100 µM | NCI-H23 > 100 µM | 786-0 > 100 µM | KM12 > 100 µM | M14 > 100 µM | CCRF-CEM > 100 µM | HT-29 79.8 µM | SK-MEL-28 > 100 µM | UO-31 > 100 µM

COc1ccc2c(c1)[n+]([O-])c(-c1ccc([N+](=O)[O-])cc1)c(N)[n+]2[O-]
inactive: HL-60 57.5 µM | SW-620 > 100 µM | NCI-H522 12.7 µM | NCI-H460 49.5 µM | OVCAR-4 > 100 µM | CAKI-1 > 100 µM | SK-OV-3 > 100 µM | SR 18.7 µM | NCI-H23 88.5 µM | 786-0 > 100 µM | KM12 > 100 µM | M14 > 100 µM | CCRF-CEM 56.5 µM | HT-29 65.5 µM | SK-MEL-28 67 µM | OVCAR-5 > 100 µM | UO-31 > 100 µM

From ChEMBL document CHEMBL1201862, “PubChem BioAssay data set” (2004)
